In a melting point compilation (Tetko et al.; mined from patent text by program, amines drawn as free bases though some values may be those of a salt):

Compound	melting point [°C]
CC#CCOc1ccc(S(=O)(=O)C(C(=O)NO)c2cccc3ccccc23)cc1 (configuration not stated)	213
CN(Cc1ccc2c(Br)c(O)ccc2c1)C(=O)c1cn(C)c2ccccc12	189 to 190
OC(C=Cc1ccco1)c1cnc2sc3c(n12)CCCCC3 (configuration not stated)	177 to 180
Cc1nc2cnccc2n1-c1ccc2c(c1)CC(C#N)C2 (configuration not stated)	174 to 176
COC(=O)c1cc(OC)cc(-c2cccc([N+](=O)[O-])c2)n1	150 to 152
Nc1cc([N+](=O)[O-])cc(CCO)c1N	172
CCCC(Cn1ncnc1S)c1ccc(Cl)cc1Cl (configuration not stated)	103
CCOP(=O)(OCC)C(O)c1cccc([N+](=O)[O-])c1 (configuration not stated)	93 to 95
FC(F)(F)c1cc(-c2ccc(Cl)cc2)nc(-n2cnc(I)c2)n1	258
COC(=O)c1c(F)cc(O)cc1F	178 to 180
Cc1ccc(C(=O)c2ccc(SCCO)cc2)cc1C	92 to 93
O=C(NNc1ccccc1)NC1(N=NC2(NC(=O)NNc3ccccc3)CCCCC2)CCCCC1	148 to 151
CNc1cc(CC(C#N)=CNc2ccccc2)cc(NC)c1Cl	142 to 147
CN1CCC(=C2c3ccccc3CC(O)c3ccccc32)CC1 (configuration not stated)	205 to 206
N#Cc1ccc(Cc2ccc(OCC3CCCCC3)cc2)cc1	104 to 106
Nc1c(-c2cc(Cl)ccc2O)c2ccc(C(F)(F)F)cc2[nH]c1=O	225 to 227
O=c1c2ccccc2[nH]n1CC#Cc1ccccc1	151 to 154
C#Cc1ccc(Nc2c(C(=O)c3nccn3C)ccc(F)c2F)c(F)c1	166
CC(COc1ccc(CC2SC(=O)NC2=O)cc1)N1CC(COc2cccc(Cl)c2)OC1=O (configuration not stated)	48 to 53
CCOC(=O)c1c(CI)nc2cc(OC)c(OC)cc2c1-c1ccc(OC)c(OC)c1	170 to 171
CCOP(=O)(Cc1ccc(NC(=O)/C=C/c2cnn(C)c2-c2ccc(F)cc2)cc1)OCC	208 to 209
CSCc1ccc(C(=O)c2ccc(Cl)cc2)cc1	59 to 61
COc1c(F)cc2c(O)c(C(=O)NCc3ccc(Cl)cc3)cnc2c1F	217 to 219
Cc1cc2ncc(Nc3cccc(Cl)c3)nc2cc1C	175

Compound	melting point [°C]
C[C@H](N=Cc1ccc(OCc2ccccc2F)cc1)C(N)=O	121
CN(Cc1cc2c(=O)c(C(=O)NCc3ccc(Cl)cc3)cn(C)c2s1)CC(O)c1cccnc1 (single isomer, unassigned; (+))	132 to 135
CCC(=O)N(C)c1cccc(-c2ccc3nnc(C)n3n2)c1	150 to 152
COc1ccc(COc2ccc(Oc3c(C)cc(/C=C/C(=O)N4CCN(Cc5ccc(/C=C/COc6ccc(C)cc6)cc5)CC4)cc3C)nc2)cc1	130 to 132
Cc1cccc2c1C1(COc3cc4c(cc31)OCO4)C(=O)N2Cc1ccc(C(F)(F)F)o1 (configuration not stated)	117 to 119
O=C(Cc1csc(-c2cccc(O)c2)n1)NC1C(=O)N2C(C(=O)OC(c3ccccc3)c3ccccc3)=CCSC12 (configuration not stated)	152 to 154
Cc1cn(C(C)C(=O)N(C)C)nc1-c1ccco1 (configuration not stated)	93 to 95
CCCCn1c(CCC)ccc1Cc1cccc(NC(N)=O)c1	85 to 89
CC(=O)Oc1ccc([C@H]2[C@H](c3ccccc3)C2(Cl)Cl)cc1 (relative stereo)	124 to 126
CC(C)(C)c1cc(SCCCCSCC(=O)O)cc(C(C)(C)C)c1O	84 to 86
CN(C)C(=O)Cc1nn(-c2ccccc2)c(=O)c2[nH]c3ccc(F)cc3c12	289 to 290
COc1cc(OC)nc(-c2c(C)[nH]c3ccc(Cl)cc23)n1	179 to 181
COc1ccc(NC(=O)NCCCl)cc1OC	117
CC(C)COc1ccc2c(c1)N(C)C(=O)N(c1ccc(Cl)cc1)S2(=O)=O	108 to 110
COC(=O)Cc1csc(NC(C)=O)n1	122 to 123
COc1cc2c(c3c1OC(C)(C)C3)C(c1cccc(N3CCNS3)c1)=NC(C)(C)C2	145 to 147
COc1ccc(C(=O)Nc2cnc3c(c2)CN(Cc2ccccc2)CC3)cc1Br	214 to 215
Cc1nc(-c2cc(C)c(OCCCc3cc(C4CC4)no3)c(C)c2)no1	50.5 to 51
O=C(OC(Cc1c[nH]cn1)C(=O)O)C(Cc1ccccc1)Cc1ccccc1 (configuration not stated)	210
O=[N+]([O-])c1c(Cl)cc(Cl)cc1CO	133 to 134
CCOC(=O)[C@H](Cc1cccc(OCc2ccc3ccccc3c2)c1)NC(=O)C(F)(F)F	103 to 111
CC1CC(=O)N(C)N=C1c1ccc2c(c1)OCC(=O)N2 (configuration not stated)	204 to 206
CCCCNS(=O)(=O)CC(O)(CCCC)C(O)C(N)CC1CCCCC1 (configuration not stated)	164 to 165
O=C(Nc1ccc(C(F)(F)F)cc1)c1ccccc1SSc1ccccc1C(=O)Nc1ccc(C(F)(F)F)cc1	272 to 275

Compound	melting point [°C]
CCOc1nc(N2CCNCC2)nc2c1sc1nc(-c3ccc(C(O)CO)cc3)nc(C)c12 (configuration not stated)	> 300
CC(=O)c1ccc(N2CCN(Cc3n[nH]c4ccccc34)CC2)cc1	198 to 200
O=C(Nc1ccc(Cl)c(C(F)(F)F)c1)N[C@H]1CC[C@H](O)CC1	203 to 207
N#Cc1ccc(N(Cc2ccc(O)c(Cl)c2)n2cnnc2)cc1-c1cc2ccccc2o1	196 to 197
Cc1c2ccccc2c(-c2cc(Br)c(O)c(Br)c2)c2c1sc1ccccc12	224 to 226
O=C(O)c1nc2cc(-n3cccc3)c([N+](=O)[O-])cc2[nH]c1=O	> 300
Cc1ccc(OCCO)cn1	49 to 51
NC(N)=Nc1nc(-c2ccc(CNC(=O)c3ccco3)o2)cs1	246
CCOc1cc(N)c(Cl)cc1C(=O)NC[C@H]1CN(CC2CCN(C(=O)N3CCC3)CC2)CCO1	166 to 168
CC(CSC(=S)N(C)C)[N+](=O)[O-] (configuration not stated)	38.5 to 41
O=C(O)CCc1oc(-n2ccnc2)nc1-c1ccc(Cl)cc1	194 to 195
CN1Cn2cc(CO)cc2-c2ccccc21	74 to 76
CC(C#Cc1ccc(C=Cc2ccc(F)cc2)o1)N(O)C(N)=O (configuration not stated)	177
N#Cc1c2ccccc2c(-c2ccc(O)cc2)c2c1sc1ccccc12	307 to 309
CCC(NC(C)=O)c1ccc(CN2CCN(c3ccc(F)cc3)CC2)cc1 (configuration not stated)	113 to 114
CCOC(=O)NCSSc1ccc([N+](=O)[O-])cc1C(Cl)(Cl)Cl	90 to 91
CCCc1cc(C#N)sc1-c1ccc2c(c1)C(C)(C)OC(=S)N2	174 to 175
Cc1cc(Nc2ccc(Cl)cc2)nc(-c2cccc(Cl)n2)n1	239
CC(=O)OC1CSC(Oc2ccc(-c3sc(C)nc3C)nc2)C(OC(C)=O)C1OC(C)=O (configuration not stated)	174 to 177
CCOC(=O)C(C(=O)CCC(C)C)C1c2nccnc2C(=O)N1c1ccc2ccc(Cl)nc2n1 (configuration not stated)	136
Cc1nc2c(N)nc3ccccc3c2n1CCCCNC(=O)C(C)C	160 to 161
N#Cc1ccc(C(CC2CCCC2)C(=O)Nc2nccs2)cc1 (configuration not stated)	62 to 64
Oc1ccc(Cl)cc1I	79 to 82
Cn1c(C(F)(F)F)cc(=O)n(-c2cc(OCc3cccc(F)c3)c(Cl)cc2F)c1=O	135 to 137
